# According to article PMC5038302 (Antimicrobial Agents and Chemotherapy, 2016):
# Values joined by “and” are separate entries in the source; they are usually repeats but may differ in a detail not shown here. Equal values may be shown once. Read-outs that look alike come from different tables or passages of the source.
# Columns and labels:
# SPM-1 [1] = type: binding
# Protocol: (§1) Typical experimental parameters for Carr-Purcell-Meiboom-Gill (CPMG) NMR spectroscopy were the following: total echo time, 40 ms; relaxation delay, 2 s; and number of transients, 264 ([31]). The PROJECT-CPMG sequence (90°x-[τ-180°y-τ-90°y-τ-180°y-τ]n-acq) was applied. Water suppression was achieved by presaturation. Prior to Fourier transformation, the data were multiplied with an exponential function with 3-Hz line broadening.
# (§2) For ^1H excitation sculpting suppression with perfect echo NMR experiments, spectra were typically obtained using 256 scans and a relaxation delay of 1 s ([32]). A 2-ms sinc pulse was used for water suppression. Prior to Fourier transformation, data were multiplied with an exponential function with 2-Hz line broadening.
# (§3) For water-ligand observed gradient spectroscopy (wLOGSY) analyses, typical experimental parameters were the following: mixing time, 1 s; relaxation delay, 2 s; number of transients, 256 ([33]). Solvent excitation was achieved using a 16-ms 180° selective rectangular shape pulse with 1,000 points (Squa100.1000) set at the H2O frequency. Water suppression was achieved by a 2-ms sinc pulse (Sinc1.1000) at the H2O frequency.
# IMP-1 [2] = biological target: T1, IMP-1 (Serratia marcescens, UniProt P52699); test: biochemical; settings: Approximate Ki (= Km) value, from a single avibactam concentration (1 mM), ceftazidime 30 µM substrate
# T1 sequence (P52699 19-246 limits assumed): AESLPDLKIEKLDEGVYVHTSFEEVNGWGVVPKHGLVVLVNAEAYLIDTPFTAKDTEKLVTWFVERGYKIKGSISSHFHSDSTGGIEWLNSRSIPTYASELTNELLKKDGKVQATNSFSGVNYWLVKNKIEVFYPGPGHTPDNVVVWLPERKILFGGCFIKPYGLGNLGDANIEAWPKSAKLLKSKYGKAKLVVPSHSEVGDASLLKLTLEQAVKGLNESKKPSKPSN
# VIM-4 [3] = biological target: T2, VIM-4 (Pseudomonas aeruginosa, UniProt Q8KRJ3); settings: still extremely slow by normal β-lactamase standards
# NDM-1 [4] = biological target: T3, NDM-1 (Klebsiella pneumoniae, UniProt C7C422); type: binding; settings: avibactam 4 mM, Tris-D11 50 mM pH 7.5
# T3 sequence (C7C422 43-270 limits assumed, looked up, species assumed): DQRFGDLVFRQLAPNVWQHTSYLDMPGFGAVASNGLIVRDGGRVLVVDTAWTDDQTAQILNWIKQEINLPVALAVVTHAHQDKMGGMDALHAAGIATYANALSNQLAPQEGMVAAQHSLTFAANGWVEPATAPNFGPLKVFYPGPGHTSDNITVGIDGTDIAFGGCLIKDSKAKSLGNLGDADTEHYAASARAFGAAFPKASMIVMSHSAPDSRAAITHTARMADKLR
# VIM-4 [5] = biological target: T2, VIM-4; settings: VIM-4, 240 min, Raman spectroscopy
# VIM-4 [6] = biological target: T2, VIM-4; settings: LC-MS
# FEZ-1 [7] = biological target: T4, FEZ-1 (Fluoribacter gormanii, UniProt Q9K578); type: binding, Fluoribacter (Legionella) gormanii; settings: FEZ-1 80 μM, avibactam 4 mM, Tris-D11 50 mM pH 7.5
# T4 sequence (Q9K578 21-282 limits assumed): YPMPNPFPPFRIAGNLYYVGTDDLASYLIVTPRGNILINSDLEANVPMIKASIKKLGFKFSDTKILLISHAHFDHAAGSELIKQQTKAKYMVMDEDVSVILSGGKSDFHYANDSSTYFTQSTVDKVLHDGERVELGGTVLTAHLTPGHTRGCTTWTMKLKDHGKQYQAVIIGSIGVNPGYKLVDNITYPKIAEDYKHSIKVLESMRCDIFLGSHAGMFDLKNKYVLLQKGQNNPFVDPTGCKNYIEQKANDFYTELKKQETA
# FEZ-1 [8] = biological target: T4, FEZ-1; test: biochemical; parameters: species or system Fluoribacter (Legionella) gormanii; settings: Approximate Ki (= Km) value, from a single avibactam concentration (1 mM), ceftazidime 30 µM substrate
# VIM-4 [9] = biological target: T2, VIM-4; settings: 1 mM avibactam (600 μl), 12 μg VIM-4, 5 mM HEPES pH 7.5, 20 μM ZnCl2, 4 h at 37°C
# VIM-2 [10] = biological target: T5, VIM-2 (Escherichia coli, UniProt Q5U7L7); test: biochemical
# CphA = CphA (Aeromonas hydrophila, UniProt P26918); type: binding; settings: CphA 80 μM, avibactam 4 mM, Tris-D11 50 mM pH 7.5
# Sequence of CphA (P26918 28-254): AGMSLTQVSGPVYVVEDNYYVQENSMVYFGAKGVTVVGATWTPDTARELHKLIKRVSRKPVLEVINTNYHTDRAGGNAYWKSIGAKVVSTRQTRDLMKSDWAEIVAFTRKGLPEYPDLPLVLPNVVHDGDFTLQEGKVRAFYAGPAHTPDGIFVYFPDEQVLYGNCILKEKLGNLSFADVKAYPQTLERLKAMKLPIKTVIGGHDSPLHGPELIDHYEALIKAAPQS
# VIM-4 [11] = biological target: T2, VIM-4; type: biochemical; settings: read-out: Approximate Ki value (reflecting Km), from a single avibactam concentration (1 mM), ceftazidime 30 µM substrate
# VIM-2 [12] = biological target: T5, VIM-2; type: binding; settings: VIM-2 80 μM, avibactam 4 mM, Tris-D11 50 mM pH 7.5
# NDM-1 [13] = biological target: T3, NDM-1; settings: NDM-1 0.022 mM; still extremely slow by normal β-lactamase standards
# NDM-1 [14] = biological target: T3, NDM-1; test: biochemical
# VIM-4 [15] = biological target: T2, VIM-4; type: binding; settings: VIM-4 80 μM, avibactam 4 mM, Tris-D11 50 mM pH 7.5
# [16] = Stability of avibactam in buffer without enzyme (NMR control); settings: buffer (Tris-D11 50 mM, pH 7.5)
# BcII = BcII (Bacillus cereus, UniProt P04190); type: binding; settings: BcII 80 μM, avibactam 4 mM, Tris-D11 50 mM pH 7.5
# Sequence of BcII (P04190 31-257): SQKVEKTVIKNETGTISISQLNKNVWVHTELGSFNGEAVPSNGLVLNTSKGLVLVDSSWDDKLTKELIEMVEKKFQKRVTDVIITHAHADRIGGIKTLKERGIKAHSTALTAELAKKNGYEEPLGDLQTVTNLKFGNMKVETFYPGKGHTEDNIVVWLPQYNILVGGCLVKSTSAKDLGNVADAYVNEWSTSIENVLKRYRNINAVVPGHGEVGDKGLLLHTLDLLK
# Protocol: as §1, §2, §3
# SPM-1 [17] = type: biochemical
# [18] = system: NC(=O)[C@@H]1CC[C@@H]2CN1C(=O)N2OS(=O)(=O)O; test: purified protein, by the assay type
# VIM-2 [19] = biological target: T5, VIM-2; settings: cited from earlier work
# [20] = system: all of the MBLs (VIM-2, VIM-4, SPM-1, NDM-1, IMP-1, FEZ-1); test: Complete time courses of ceftazidime hydrolysis; type: biochemical; settings: all MBLs incl. VIM-4; concluded from quasi first-order complete time courses, 5 mM HEPES pH 7.5
# NDM-1 [21] = biological target: T3, NDM-1; settings: cited from earlier work
# SPM-1 [22] = system: SPM-1; parameters: method as in PMID 12543663; settings: reported conditions different, read-out: ceftazidime Km; cited from earlier work
# IMP-1 [23] = biological target: T1, IMP-1; settings: cited from earlier work
# FEZ-1 [24] = biological target: T4, FEZ-1; parameters: method as in PMID 11257043; settings: reported conditions different, read-out: ceftazidime Km; cited from earlier work
compound,measurement,setting,value
NC(=O)[C@@H]1CC[C@@H](NOS(=O)(=O)O)CN1 [hydrolyzed product(s)],Binding of products of avibactam by wLOGSY NMR,"SPM-1 [1]; SPM-1, hydrolyzed product NOE sign opposite to that of SPM-1 (free ligand)",no evidence for binding
NC(=O)[C@@H]1CC[C@@H]2CN1C(=O)N2OS(=O)(=O)O [avibactam],Ki,IMP-1 [2],1700 µM and ~1700 µM
same,Avibactam hydrolysis observed by NMR,VIM-4 [3],more efficient hydrolysis
same,Binding by 1H CPMG NMR,NDM-1 [4],weak binding
same,Amount of sulfate produced from avibactam (of the total avibactam product),VIM-4 [5],< 15%
same,Reduction of the avibactam MS signal after VIM-4-catalyzed hydrolysis,VIM-4 [6],~50 fold
same,Binding by 1H CPMG NMR,FEZ-1 [7],weak binding
same,Ki,FEZ-1 [8],2300 µM and ~2300 µM
same,Avibactam hydrolyzed (from absorbance at 230 nm),VIM-4 [9],~70%
same,Ki,VIM-2 [10],> 5000 µM
same,Binding by 1H CPMG NMR,CphA,did not observe binding
same,Ki,VIM-4 [11],> 5000 µM
same,Binding by 1H CPMG NMR,VIM-2 [12],weak binding
same,Avibactam hydrolysis observed by NMR,NDM-1 [13],more efficient hydrolysis
same,Ki,NDM-1 [14],> 5000 µM
same,Binding by 1H CPMG NMR,VIM-4 [15],weak binding
same,Hydrolysis of avibactam without enzyme,[16],did not lead to detectable product levels
same,Binding by 1H CPMG NMR,BcII,did not observe binding
same,Binding by 1H CPMG NMR,"SPM-1 [1]; SPM-1 80 μM, avibactam 4 mM, Tris-D11 50 mM pH 7.5",weak binding
same,Effect of avibactam on SPM-1-catalyzed ceftazidime hydrolysis,"SPM-1 [17]; 1 mM avibactam, ceftazidime 30 µM",apparent activation
same,Residual activity,"SPM-1 [17]; ceftazidime (30 µM) in the presence of 1 mM avibactam, HEPES buffer, 30°C",140 + 15%
FEZ-1 (Fluoribacter gormanii),kcat/Km,[18],70 ± 15 M⁻¹ s⁻¹
same,kcat/Km,"[18]; pH 7.5, 30.0 °C",70 ± 15 M⁻¹ s⁻¹
CC(C)(O/N=C(\C(=O)N[C@@H]1C(=O)N2C(C(=O)[O-])=C(C[n+]3ccccc3)CS[C@H]12)c1csc(N)n1)C(=O)O [ceftazidime],Km,VIM-2 [19],72 µM
same,Km,[20],> 30 µM
same,Km,NDM-1 [21],180 µM
same,Km,SPM-1 [22],46 µM
same,Km,IMP-1 [23],46 µM
same,Km,FEZ-1 [24],> 1000 µM
